{
  "source": "paper PMC12113431",
  "about": "“Chartarlactams U-X: Novel Phenylspirodrimanes from a Marine Derived Fungus Stachybotrys sp. SZU-W23 with Anti-Inflammatory Activity Mediated by the NF-κB/ROS Signaling Pathways” (Marine Drugs, 2025)",
  "key": {"[1]": {"test_system": "nitric oxide production in LPS-stimulated RAW 264.7 macrophages", "assay": "Inhibition of NO production in LPS-stimulated RAW 264.7 macrophages (Griess reaction)", "assay_type": "cell-based, mouse", "conditions": "for IC50: Mus musculus, read-out: IC50, inhibition of NO production; for NO production inhibition at 10 μM: test concentration of 10 μM; for NO production inhibition at 10 μM / NO-inhibitory effect: RAW 264.7, LPS; for NO-inhibitory effect: tested at 3 to 30 μM", "protocol": "RAW 264.7 macrophages were seeded into 96-well plates at a density of 2.0 × 10^5 cells/well in complete DMEM and allowed to adhere for 2 h at 37 °C under 5% CO2. The cells were pretreated with compounds 1–15 (3–30 μM) for 2 h, followed by stimulation with ultrapure lipopolysaccharide (LPS; 100 ng/mL, from E. coli O111:B4, Sigma-Aldrich) for 24 h. NO production was assessed via the Griess reaction by quantifying nitrite (NO2^−) accumulation in culture supernatants.\nBriefly, 50 μL of the cell-free supernatant from each well was mixed with 50 μL of 1% sulfanilamide (dissolved in 5% phosphoric acid; Griess Reagent A, Beyotime Biotechnology, Shanghai, China) and incubated for 5 min at room temperature. Subsequently, 50 μL of 0.1% N-1-naphthylethylenediamine dihydrochloride (Griess Reagent B, Beyotime Biotechnology) was added, followed by 5 min incubation in the dark. The absorbance was measured at 540 nm with a reference wavelength of 630 nm using a Synergy H1 microplate reader (BioTek Instruments, Winooski, VT, USA). Nitrite concentrations were interpolated from a sodium nitrite standard curve (0–100 μM; R^2 > 0.99)."}, "[2]": {"test_system": "RAW 264.7 cells", "assay": "Cytotoxicity, CCK-8 cell viability assay", "assay_type": "cell-based, mouse", "conditions": "for cytotoxicity (qualitative): tested at 3, 10 and 30 μM", "protocol": "RAW 264.7 cells were seeded into 96-well plates at a density of 1.0 × 10^5 cells/well (100 μL/well) in complete DMEM (high-glucose DMEM supplemented with 10% FBS, 100 U/mL penicillin, and 100 μg/mL streptomycin) and allowed to adhere for 24 h at 37 °C under 5% CO2. Subsequently, serial dilutions of compounds (0.3–30 μM in DMSO, with the final DMSO concentration < 0.1%) were added to respective wells and incubated for 24 h. Cell viability was assessed using the CCK-8 assay (Dojindo Laboratories, Kumamoto, Japan): 10% (v/v) CCK-8 reagent was added to each well, followed by incubation for 30 min at 37 °C. The absorbance was measured at 450 nm with a reference wavelength of 650 nm using a microplate reader (BioTek Instruments, Winooski, VT, USA)."}, "[3]": {"test_system": "NO production in LPS-activated RAW264.7 murine macrophages", "set-up": "method as in doi:10.1039/C7RA09859F", "conditions": "read-out: IC50, inhibition of NO production; cited from earlier work"}, "[4]": {"test_system": "IL-6 expression in RAW 264.7 cells", "assay": "LPS-induced IL-6 expression by real time PCR", "assay_type": "cell-based, mouse", "conditions": "RAW 264.7, 0.3–10 μM, LPS 24 h", "protocol": "(§1) RAW 264.7 cells (2 × 10^6 cells) were seeded into 30 mm petri dishes. After the cells adhered to the dishes for 2 h, compound 10 at concentrations of 0.3, 1, 3, and 10 μM was added, and the cells were cultured in an incubator at 37 °C for 2 h. Then, 100 ng/mL of LPS was added and the cells were co-cultured for 24 h. The cells were collected into 1.5 mL EP tubes, and total RNA was extracted using an RNA extraction kit. Then, the concentration of the total RNA was determined with a nucleic acid quantifier, and the RNA was reverse transcribed into the corresponding cDNA.\n(§2) According to the operation procedures of the rapid reverse transcription kit, 1 μg of total RNA and 1 μL of dNTP Mixture were first added into a PCR tube. Then, RNase-free dH2O was added until the total volume of the solution reached 10 μL. After mixing evenly, the mixture was incubated at 65 °C for 5 min and then immediately placed on ice for ice-bathing. Subsequently, 4 μL of 5 × PrimeScript® Buffer, 0.5 μL of RNase Inhibitor (40 U/μL), 1 μL of PrimeScript® RTase (200 U/μL), and 4.5 μL of RNase Free dH2O were added to make the entire solution system reach 20 μL. […]\n(§3) The reaction system mixture was prepared using a real-time quantitative PCR kit. […]"}, "[5]": {"biological_target": "T1, NF-κB p65 (Mus musculus, UniProt Q04207)", "T1 construct": "endogenous in cells; host or cells: RAW 264.7 murine macrophages, LPS-stimulated", "T1 sequence (Q04207 whole entry)": "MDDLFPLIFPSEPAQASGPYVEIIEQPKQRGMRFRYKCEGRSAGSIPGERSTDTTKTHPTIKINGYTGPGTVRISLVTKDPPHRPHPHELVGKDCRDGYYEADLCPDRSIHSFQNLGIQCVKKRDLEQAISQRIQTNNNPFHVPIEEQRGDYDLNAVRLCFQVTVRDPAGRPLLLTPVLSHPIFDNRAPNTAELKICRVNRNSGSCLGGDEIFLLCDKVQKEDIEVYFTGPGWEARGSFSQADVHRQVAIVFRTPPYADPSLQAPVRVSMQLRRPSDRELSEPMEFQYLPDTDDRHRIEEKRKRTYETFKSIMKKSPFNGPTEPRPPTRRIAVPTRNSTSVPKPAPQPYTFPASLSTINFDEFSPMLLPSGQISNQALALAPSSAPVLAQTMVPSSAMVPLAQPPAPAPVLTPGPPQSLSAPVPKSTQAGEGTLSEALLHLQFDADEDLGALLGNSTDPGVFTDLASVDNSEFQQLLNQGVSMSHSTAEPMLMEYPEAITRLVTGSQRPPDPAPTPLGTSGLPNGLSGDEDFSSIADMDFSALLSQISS", "assay": "DNA-binding activity of p65 (NF-κB p65 ELISA kit)", "assay_type": "cell-based", "conditions": "0.3–10 μM, p < 0.01 vs. LPS-only group", "protocol": "To investigate the anti-inflammatory mechanism of compound 10, we quantified its inhibitory effect on the DNA-binding activity of p65 using a TransAM® NF-κB p65 ELISA kit (Ruixin Biotechnology, Guangzhou, China).\nRAW 264.7 macrophages were seeded into 60 mm diameter culture dishes at a density of 3.0 × 10^6 cells/dish in complete DMEM and allowed to adhere for 2 h at 37 °C under 5% CO2. Cells were pretreated with Compound 10 (0.3–10 μM in DMSO, final solvent concentration < 0.1%) for 2 h, followed by stimulation with ultrapure LPS for an additional 2 h. The supernatant of cell culture medium was collected, and then NF-κB p65 binding activity of NF-κB in extracts was detected with NF-κB p65 kit (RUIXIN, Quanzhou, China)."}, "[6]": {"test_system": "TNF-α expression in RAW 264.7 cells", "assay": "LPS-induced TNF-α expression by real time PCR", "assay_type": "cell-based, mouse", "conditions": "RAW 264.7, 0.3–10 μM, LPS 24 h", "protocol": "as §1, §2, §3"}, "[7]": {"test_system": "IL-1β expression in RAW 264.7 cells", "assay": "LPS-induced IL-1β expression by real time PCR", "assay_type": "cell-based, mouse", "conditions": "RAW 264.7, 0.3–10 μM, LPS 24 h", "protocol": "as §1, §2, §3"}, "[8]": {"test_system": "nitric oxide production in LPS-stimulated RAW 264.7 macrophages", "assay": "Inhibition of NO production in LPS-stimulated RAW 264.7 macrophages (Griess reaction)", "assay_type": "cell-based, mouse", "conditions": "re-evaluation within 0.3–10 μM, RAW264.7, LPS"}, "[9]": {"test_system": "ROS production in RAW264.7 cells", "assay": "LPS-induced ROS production (DCFH-DA fluorescent probe)", "assay_type": "cell-based, mouse", "conditions": "RAW264.7, LPS 24 h, concentrations that are not cytotoxic (0.3–10 μM)", "protocol": "RAW264.7 cells were seeded into black 96-well plates at a density of 5 × 10^4 cells per well and cultured for 2 h until they adhered to the plate. Subsequently, compound 10 at concentrations of 0.3, 1, 3, and 10 μM was added respectively, and the cells were cultured for another 2 h. Then, 100 ng/mL of LPS was added and the cells were co-cultured in an incubator at 37 °C for 24 h. After that, the production of ROS was detected. The cell culture medium in the 96-well plates was removed, and then […] of the fluorescent probe DCFH-DA solution diluted to 10 μM with serum-free DMEM medium was added. The plates were placed in the cell incubator and incubated in the dark for 30 min. Subsequently, the supernatant was removed and the cells were washed three times with phosphate-buffered saline (PBS). Finally, detection was carried out using a microplate reader (BioTek, Winooski, VT, USA) with an excitation wavelength of 488 nm and an emission wavelength of 525 nm."}, "[10]": {"test_system": "iNOS mRNA expression in RAW 264.7 cells", "assay": "LPS-induced iNOS mRNA expression by RT-qPCR", "assay_type": "cell-based, mouse", "conditions": "RAW 264.7, 0.3–10 μM, LPS 24 h", "protocol": "as §1, §2, §3"}, "[11]": {"conditions": "RAW264.7, LPS-stimulated RAW 264.7 macrophages, LPS 100 ng/mL, 24 h"}},
  "note": "Read-outs that look alike come from different tables or passages of the source.",
  "data": [
    {"smiles": "CC(C)CC(C(=O)O)N1Cc2c(cc(O)c3c2O[C@]2(C3)[C@H](C)CC[C@H]3C(C)(C)[C@H](O)CC[C@@]32C)C1=O", "note": "(some centres unmarked) [Compound 12]", "values": [
      {"measurement": "IC50", "setting": "[1]; RAW264.7, 24 h", "value": 6.5, "unit": "µM"},
      {"measurement": "NO production inhibition at 10 μM", "setting": "[1]", "value": "potent inhibitory effects"},
      {"measurement": "NO-inhibitory effect", "setting": "[1]", "value": "significant NO-inhibitory effects"},
      {"measurement": "cytotoxicity at 30 μM", "setting": "[2]", "value": "manifested cytotoxicity"}
    ]},
    {"smiles": "COC(=O)CCCN1Cc2c(cc(O)c3c2O[C@]2(C3)[C@H](C)CC[C@H]3C(C)(C)[C@H](O)CC[C@@]32C)C1=O", "note": "[stachybonoid F]", "values": [
      {"measurement": "IC50", "setting": "[3]", "value": 52.5, "unit": "µM"}
    ]},
    {"smiles": "C[C@@H]1CC[C@H]2C(C)(C)[C@H](O)[C@H](O)C[C@]2(C)[C@@]12Cc1c(O)cc3c(c1O2)CN(CCc1ccc(O)cc1)C3=O", "note": "[Compound 1, Chartarlactam U]", "values": [
      {"measurement": "IC50", "setting": "[1]; [11]", "value": 26.2, "unit": "µM"}
    ]},
    {"smiles": "C[C@@H]1CC[C@H]2C(C)(C)[C@H](O)CC[C@]2(C)[C@@]12Cc1c(O)cc3c(c1O2)COC3=O", "note": "[stachybotrylactone]", "values": [
      {"measurement": "IC50", "setting": "[3]", "value": 17.9, "unit": "µM"}
    ]},
    {"smiles": "C[C@@H]1CC[C@H]2C(C)(C)[C@H](O)CC[C@]2(C)[C@@]12Cc1c(O)cc3c(c1O2)CNC3=O", "note": "[Compound 15]", "values": [
      {"measurement": "cytotoxicity (qualitative)", "setting": "[2]", "value": "low cytotoxicity"}
    ]},
    {"smiles": "CC(=O)O[C@@H]1[C@H](O)C[C@@]2(C)[C@@H](CC[C@@H](C)[C@]23Cc2c(O)cc(CO)c(C=O)c2O3)C1(C)C", "note": "[stachybotrysin C]", "values": [
      {"measurement": "IC50", "setting": "[3]", "value": 27.2, "unit": "µM"}
    ]},
    {"smiles": "C[C@@H]1CC[C@H]2C(C)(C)[C@H](O)CC[C@]2(C)[C@@]12Cc1c(O)cc3c(c1O2)CN(C(CCC(=O)O)C(=O)O)C3=O", "note": "(some centres unmarked) [Compound 13]", "values": [
      {"measurement": "IC50", "setting": "[1]; [11]", "value": 11.1, "unit": "µM"}
    ]},
    {"smiles": "C[C@@H]1CC[C@H]2C(C)(C)[C@H](O)[C@H](O)C[C@]2(C)[C@@]12Cc1c(O)cc3c(c1O2)CNC3=O", "note": "[Compound 14]", "values": [
      {"measurement": "cytotoxicity (qualitative)", "setting": "[2]", "value": "low cytotoxicity"}
    ]},
    {"smiles": "CCC(C)C(C(=O)O)N1Cc2c(cc(O)c3c2O[C@]2(C3)[C@H](C)CC[C@H]3C(C)(C)[C@H](O)[C@H](O)C[C@@]32C)C1=O", "note": "(some centres unmarked) [Compound 10]", "values": [
      {"measurement": "IL-6 expression", "setting": "[4]", "value": "dose-dependent attenuation"},
      {"measurement": "IC50", "setting": "[1]; [11]", "value": 12.4, "unit": "µM"},
      {"measurement": "NO production inhibition at 10 μM", "setting": "[1]", "value": "potent inhibitory effects"},
      {"measurement": "DNA-binding activity of p65", "setting": "[5]", "value": "significant suppression of p65 binding"},
      {"measurement": "cytotoxicity over the tested concentration range", "setting": "[2]; up to 30 μM (0.3–30 μM in the abstract, 3 to 30 μM)", "value": "no detectable cytotoxicity"},
      {"measurement": "TNF-α expression", "setting": "[6]", "value": "dose-dependent attenuation"},
      {"measurement": "IL-1β expression", "setting": "[7]", "value": "dose-dependent attenuation"},
      {"measurement": "inhibitory effect on NO production at 0.3 μM", "setting": "[8]", "value": "potent inhibitory effect on NO production"},
      {"measurement": "ROS production", "setting": "[9]", "value": "capable of inhibiting the production of ROS"},
      {"measurement": "LPS-induced iNOS mRNA expression", "setting": "[10]", "value": "significant suppression"}
    ]},
    {"smiles": "CC1CCC2C(C)(C)C(O)C(O)CC2(C)C12Cc1c(O)cc3c(c1O2)C(=O)NC3=O", "note": "(centres unmarked) [Compound 3, Chartarlactam W]", "values": [
      {"measurement": "IC50", "setting": "[1]; [11]", "value": 22.4, "unit": "µM"}
    ]},
    {"smiles": "CC(C)CC(C(=O)O)N1Cc2c(cc(O)c3c2O[C@]2(C3)[C@H](C)CC[C@H]3C(C)(C)[C@H](O)[C@H](O)C[C@@]32C)C1=O", "note": "(some centres unmarked) [Compound 11]", "values": [
      {"measurement": "IC50", "setting": "[1]; [11]", "value": 4.4, "unit": "µM"},
      {"measurement": "NO production inhibition at 10 μM", "setting": "[1]", "value": "potent inhibitory effects"},
      {"measurement": "NO-inhibitory effect", "setting": "[1]", "value": "significant NO-inhibitory effects"},
      {"measurement": "cytotoxicity at 30 μM", "setting": "[2]", "value": "manifested cytotoxicity"}
    ]}
  ]
}
